Experimental data as given in patent US8592407B2, “Pyrrolo[2,1-c][1,4] benzodiazepine derivatives with dithiocarbamate side chains and process for the preparation thereof” (Council of Scientific & Industrial Research, priority 2008, dated 2013).

Experiments:
Colon panel = experiment: NCI screen, panel average; format: cell-based, human; settings: for Log10 GI50 (concentration in mol/L): Colon, average of six to eight cell lines; for LC50: Homo sapiens, read-out: Log10 LC50 (concentration in mol/L causing 50% lethality) (converted)
HS 578T = experiment: NCI in vitro cytotoxicity (SRB); format: cell-based; settings: Homo sapiens; Breast HS 578T; 48 h exposure
TK-10 = experiment: NCI in vitro cytotoxicity (SRB); format: cell-based; settings: Homo sapiens; Renal TK-10; 48 h exposure
HOP-92 = experiment: NCI in vitro cytotoxicity (SRB); format: cell-based; settings: Homo sapiens; Non-smallcell lung HOP-92; 48 h exposure
OVCAR-8 = experiment: NCI in vitro cytotoxicity (SRB); format: cell-based; settings: Homo sapiens
EKVX = experiment: NCI in vitro cytotoxicity (SRB); format: cell-based; settings: Homo sapiens; Non-smallcell lung EKVX; 48 h exposure
SK-MEL-2 = experiment: NCI in vitro cytotoxicity (SRB); format: cell-based; settings: Homo sapiens; Melanoma SK-MEL-2; 48 h exposure
NCI-H522 = experiment: NCI in vitro cytotoxicity (SRB); format: cell-based; settings: Homo sapiens
MDA-MB-435 = experiment: NCI in vitro cytotoxicity (SRB); format: cell-based; settings: Homo sapiens; Breast MDA-MB-435; 48 h exposure
T-47D = experiment: NCI in vitro cytotoxicity (SRB); format: cell-based; settings: Homo sapiens, T47D; Breast T-47D; 48 h exposure
U251 = experiment: NCI in vitro cytotoxicity (SRB); format: cell-based; settings: Homo sapiens, U-251; CNS U251; 48 h exposure
Prostate panel = experiment: NCI screen, panel average; format: cell-based, human; settings: for CC50: Homo sapiens, read-out: Log10 LC50 (concentration in mol/L causing 50% lethality) (converted); for Log10 GI50 (concentration in mol/L): Prostate, average of six to eight cell lines
Melanoma panel = experiment: NCI screen, panel average; format: cell-based, human; settings: for LC50: Homo sapiens, read-out: Log10 LC50 (concentration in mol/L causing 50% lethality) (converted); for Log10 GI50 (concentration in mol/L): Melanoma, average of six to eight cell lines
KM12 = experiment: NCI in vitro cytotoxicity (SRB); format: cell-based; settings: Homo sapiens; Colon KM12; 48 h exposure
ACHN = experiment: NCI in vitro cytotoxicity (SRB); format: cell-based; settings: Homo sapiens; Renal ACHN; 48 h exposure
SK-MEL-28 = experiment: NCI in vitro cytotoxicity (SRB); format: cell-based; settings: Homo sapiens; Melanoma SK-MEL-28; 48 h exposure
BT-549 = experiment: NCI in vitro cytotoxicity (SRB); format: cell-based; settings: Homo sapiens; Breast BT-549; 48 h exposure
MDA-MB- = experiment: NCI in vitro cytotoxicity (SRB); format: cell-based; settings: Homo sapiens; Breast MDA-MB-; 48 h exposure
MDA-MB-468 = experiment: NCI in vitro cytotoxicity (SRB); format: cell-based; settings: Homo sapiens
SW-620 = experiment: NCI in vitro cytotoxicity (SRB); format: cell-based; settings: Homo sapiens
[1] = test system: Non-small-cell-lung panel; experiment: NCI screen, panel average; format: cell-based, human; settings: for LC50: Homo sapiens, read-out: Log10 LC50 (concentration in mol/L causing 50% lethality) (converted); for Log10 GI50 (concentration in mol/L): Non-small-cell-lung, average of six to eight cell lines
Renal panel = experiment: NCI screen, panel average; format: cell-based, human; settings: for LC50 (concentration causing 50% lethality): Homo sapiens, read-out: Log10 LC50 (concentration in mol/L causing 50% lethality) (converted); for Log10 GI50 (concentration in mol/L): Renal, average of six to eight cell lines
OVCAR-4 = experiment: NCI in vitro cytotoxicity (SRB); format: cell-based; settings: Homo sapiens; Ovarian OVCAR-4; 48 h exposure
OVCAR-3 = experiment: NCI in vitro cytotoxicity (SRB); format: cell-based; settings: Homo sapiens
Leukemia panel = experiment: NCI screen, panel average; format: cell-based, human; settings: for LC50 (50% lethal concentration): Homo sapiens, read-out: Log10 LC50 (concentration in mol/L causing 50% lethality) (converted); for Log10 GI50 (concentration in mol/L): Leukemia, average of six to eight cell lines
[2] = test system: sixty human tumour cell lines; experiment: cells; settings: read-out: GI50 value against sixty cell lines in nine cell panels
Procedure: For each compound, dose response curves for each cell line were measured at a minimum of five concentrations at 10 fold dilutions. A protocol of 48 h continuous drug exposure was used and a sulforhodamine B (SRB) protein assay was used to estimate cell viability or growth. The concentration causing 50% cell growth inhibition (G150), total cell growth inhibition (TGI 0% growth) and 50% cell death (LC50, −50% growth) compared with the control was calculated.

MALME-3M = experiment: NCI in vitro cytotoxicity (SRB); format: cell-based; settings: Homo sapiens
HCC-2998 = experiment: NCI in vitro cytotoxicity (SRB); format: cell-based; settings: Homo sapiens; Colon HCC-2998; 48 h exposure
NCI-H460 = experiment: NCI in vitro cytotoxicity (SRB); format: cell-based; settings: Homo sapiens; Non-smallcell lung NCI-H460; 48 h exposure
Ovarian panel = experiment: NCI screen, panel average; format: cell-based, human; settings: for LC50 (50% lethal concentration): Homo sapiens, read-out: Log10 LC50 (concentration in mol/L causing 50% lethality) (converted); for Log10 GI50 (concentration in mol/L): Ovarian, average of six to eight cell lines
NCI-H226 = experiment: NCI in vitro cytotoxicity (SRB); format: cell-based; settings: Homo sapiens; Non-smallcell lung NCI-H226; 48 h exposure
SR = experiment: NCI in vitro cytotoxicity (SRB); format: cell-based; settings: Homo sapiens
OVCAR-5 = experiment: NCI in vitro cytotoxicity (SRB); format: cell-based; settings: Homo sapiens; Ovarian OVCAR-5; 48 h exposure
SK-OV-3 = experiment: NCI in vitro cytotoxicity (SRB); format: cell-based; settings: Homo sapiens; Ovarian SK-OV-3; 48 h exposure
HL-60(TB) = experiment: NCI in vitro cytotoxicity (SRB); format: cell-based; settings: Homo sapiens; Leukemia HL-60(TB); 48 h exposure
NCI-H23 = experiment: NCI in vitro cytotoxicity (SRB); format: cell-based; settings: Homo sapiens; Non-smallcell lung NCI-H23; 48 h exposure
786-0 = experiment: NCI in vitro cytotoxicity (SRB); format: cell-based; settings: Homo sapiens; Renal 786-0; 48 h exposure
NCI-H322M = experiment: NCI in vitro cytotoxicity (SRB); format: cell-based; settings: Homo sapiens; Non-smallcell lung NCI-H322M; 48 h exposure
UACC-257 = experiment: NCI in vitro cytotoxicity (SRB); format: cell-based; settings: Homo sapiens; Melanoma UACC-257; 48 h exposure
[3] = Non-smallcell lung NCI-H522, 48 h exposure
[4] = Breast MDA-MB-468, 48 h exposure
[5] = Melanoma MALME-3M, 48 h exposure

COc1cc2c(cc1OCCCN1CCN(C(=S)SCCC(C#N)(c3ccccc3)c3ccccc3)CC1)N=C[C@@H]1CCCN1C2=O [Compound 12b, 3-cyano-3,3-diphenylpropyl 4-(3-[(11aS)-7-(methyloxy)-5-oxo-2,3,5,11a-tetrahydro-1H-benzo[e]pyrrolo[1,2-a][1,4]diazepin-8-yl]oxypropyl)hexahydro-1-pyrazinecarbodithioate]
Log10 GI50 (concentration in mol/L) (Colon panel): −6.02 mol/L
LC50 (Colon panel): 8.51 µM
GI50 (HS 578T): 0.56 µM
GI50 (TK-10): 0.65 µM
GI50 (HOP-92): 1.07 µM
GI50 (OVCAR-8; Ovarian OVCAR-8, 48 h exposure): 0.99 µM
GI50 (OVCAR-8; ovarian OVCAR-8): 0.99 µM
GI50 (EKVX): 2.29 µM
GI50 (SK-MEL-2): 1.16 µM
GI50 (NCI-H522; [3]): 0.17 µM
GI50 (NCI-H522; non-small cell lung NCI-H522): 0.17 µM
GI50 (MDA-MB-435): 0.55 µM
GI50 (T-47D): 0.57 µM
GI50 (U251): 0.39 µM
CC50 (Prostate panel): 2.4 µM
Log10 GI50 (concentration in mol/L) (Prostate panel): −6.51 mol/L
LC50 (Melanoma panel): 5.5 µM
Log10 GI50 (concentration in mol/L) (Melanoma panel): −5.94 mol/L
GI50 (KM12): 1.07 µM
GI50 (ACHN): 0.94 µM
GI50 (SK-MEL-28): 1.52 µM
GI50 (BT-549): 0.92 µM
GI50 (MDA-MB-): 1.41 µM
GI50 (MDA-MB-468; MDA-MB-468, breast MDA-MEI-468): 0.28 µM
GI50 (MDA-MB-468; [4]): 0.28 µM
GI50 (SW-620; Colon SW-620, 48 h exposure): 0.51 µM
GI50 (SW-620; colon cancer SW-620): 0.51 µM
LC50 [1]: 11 µM
Log10 GI50 (concentration in mol/L) [1]: −6.07 mol/L
LC50 (concentration causing 50% lethality) (Renal panel): 4.07 µM
Log10 GI50 (concentration in mol/L) (Renal panel): −6.20 mol/L
GI50 (OVCAR-4): 2.11 µM
GI50 (OVCAR-3; Ovarian OVCAR-3, 48 h exposure): 0.28 µM
GI50 (OVCAR-3; ovarian OVCAR-3): 0.28 µM
LC50 (50% lethal concentration) (Leukemia panel): 55 µM
Log10 GI50 (concentration in mol/L) (Leukemia panel): −6.63 mol/L
GI50 [2]: < 2.69 µM
GI50 (MALME-3M; [5]): 0.93 µM
GI50 (MALME-3M; melanoma MALME-3M): 0.93 µM
GI50 (HCC-2998): 1.64 µM
GI50 (NCI-H460): 0.77 µM
LC50 (50% lethal concentration) (Ovarian panel): 18.6 µM
Log10 GI50 (concentration in mol/L) (Ovarian panel): −6.03 mol/L
GI50 (NCI-H226): 1.51 µM
GI50 (SR; Leukemia SR, 48 h exposure): 0.18 µM
GI50 (SR; leukemia SR): 0.18 µM
GI50 (OVCAR-5): 1.35 µM
GI50 (SK-OV-3): 2.69 µM
GI50 (HL-60(TB)): 0.25 µM
GI50 (NCI-H23): 1.4 µM
GI50 (786-0): 1.06 µM
GI50 (NCI-H322M): 1.87 µM
GI50 (UACC-257): 2 µM

COc1cc2c(cc1OCCCCN1CCN(C(=S)SCCC(C#N)(c3ccccc3)c3ccccc3)CC1)N=C[C@@H]1CCCN1C2=O [Compound 12c, 3-cyano-3,3-diphenylpropyl 4-(4-[(11aS)-7-(methyloxy)-5-oxo-2,3,5,11a-tetrahydro-1H-benzo[e]pyrrolo[1,2-a][1,4]diazepin-8-yl]oxybutyl)hexahydro-1-pyrazinecarbodithioate]
Log10 GI50 (concentration in mol/L) (Colon panel): −5.93 mol/L
LC50 (Colon panel): 72.4 µM
GI50 (HS 578T): 0.72 µM
GI50 (TK-10): 1.26 µM
GI50 (HOP-92): 1.07 µM
GI50 (OVCAR-8; Ovarian OVCAR-8, 48 h exposure): 1.59 µM
GI50 (EKVX): 1.88 µM
GI50 (SK-MEL-2): 1.04 µM
GI50 (NCI-H522; [3]): 0.19 µM
GI50 (MDA-MB-435): 1.04 µM
GI50 (T-47D): 0.57 µM
GI50 (U251): 1.11 µM
CC50 (Prostate panel): 7.24 µM
Log10 GI50 (concentration in mol/L) (Prostate panel): −5.99 mol/L
LC50 (Melanoma panel): 7.41 µM
Log10 GI50 (concentration in mol/L) (Melanoma panel): −5.90 mol/L
GI50 (KM12): 1.39 µM
GI50 (ACHN): 1.16 µM
GI50 (SK-MEL-28): 1.75 µM
GI50 (BT-549): 1.42 µM
GI50 (MDA-MB-): 1.53 µM
GI50 (MDA-MB-468; [4]): 0.49 µM
GI50 (SW-620; Colon SW-620, 48 h exposure): 1.12 µM
LC50 [1]: 38.9 µM
Log10 GI50 (concentration in mol/L) [1]: −5.97 mol/L
LC50 (concentration causing 50% lethality) (Renal panel): 15.1 µM
Log10 GI50 (concentration in mol/L) (Renal panel): −6.05 mol/L
GI50 (OVCAR-4): 1.82 µM
GI50 (OVCAR-3; Ovarian OVCAR-3, 48 h exposure): 1.2 µM
LC50 (50% lethal concentration) (Leukemia panel): 100 µM
Log10 GI50 (concentration in mol/L) (Leukemia panel): −6.26 mol/L
GI50 (MALME-3M; [5]): 1.36 µM
GI50 (HCC-2998): 1.57 µM
GI50 (NCI-H460): 1.25 µM
LC50 (50% lethal concentration) (Ovarian panel): 55 µM
Log10 GI50 (concentration in mol/L) (Ovarian panel): −5.82 mol/L
GI50 (NCI-H226): 1.26 µM
GI50 (SR; Leukemia SR, 48 h exposure): 0.25 µM
GI50 (OVCAR-5): 2.47 µM
GI50 (SK-OV-3): 2.96 µM
GI50 (HL-60(TB)): 0.32 µM
GI50 (NCI-H23): 1.68 µM
GI50 (786-0): 1.28 µM
GI50 (NCI-H322M): 1.4 µM
GI50 (UACC-257): 1.97 µM
